# From US11472811B2, “Pyrazolotriazolopyrimidine derivatives as A2A receptor antagonist” (BEIGENE, LTD., priority 2018, dated 2022)
# Target: human A2A receptor (A2AR) (Homo sapiens (Human), UniProt P29274)
# Assay: Luciferase reporter assay (HEK293-A2AR-luc2p/CRE/Hygro cells)
# Format: cell-based
# Conditions: 3 nM CGS21680, 5 h incubation
# How it was run: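 HEK293 cells stably expressing human A2AR and a CRE-luc2P reporter were seeded in 1% FBS with 1 U/mL adenosine deaminase. After 18 h they were stimulated 5 h with 3 nM CGS21680 plus compound (0.1–10000 nM), then luciferase luminescence was read. IC50 was taken from inhibition curves, with CGS21680 alone set as 100%.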
# Sequence of human A2A receptor (A2AR) (P29274 whole entry): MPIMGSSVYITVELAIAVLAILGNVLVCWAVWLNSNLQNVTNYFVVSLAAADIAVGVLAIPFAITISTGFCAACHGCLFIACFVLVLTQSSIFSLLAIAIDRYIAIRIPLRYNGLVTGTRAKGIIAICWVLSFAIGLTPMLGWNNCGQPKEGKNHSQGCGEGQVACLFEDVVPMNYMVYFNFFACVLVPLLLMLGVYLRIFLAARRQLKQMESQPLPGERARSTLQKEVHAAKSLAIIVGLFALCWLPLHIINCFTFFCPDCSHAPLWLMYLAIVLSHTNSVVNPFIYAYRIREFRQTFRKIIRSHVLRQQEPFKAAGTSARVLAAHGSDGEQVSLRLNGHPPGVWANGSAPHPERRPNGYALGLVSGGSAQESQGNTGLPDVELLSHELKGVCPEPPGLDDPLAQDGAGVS
row,IC50,Compound
1,7.9 nM,"Nc1nc2c(cnn2C(C(=O)N[C@@H]2CCOc3ccccc32)c2ccccc2)c2nc(-c3ccco3)nn12 (stereo partly drawn) [Example 15, 2-(5-amino-2-(furan-2-yl)-7H-pyrazolo[4,3-e][1,2,4]triazolo[1,5-c]pyrimidin-7-yl)-N—((R)-chroman-4-yl)-2-phenylacetamide]"
2,40.4 nM,"C[C@@](C(=O)N[C@H]1CC[C@@H](O)CC1)(c1ccccc1)n1ncc2c1nc(N)n1nc(-c3ccco3)nc21 [Example 76A, (S)-2-(5-amino-2-(furan-2-yl)-7H-pyrazolo[4,3-e][1,2,4]triazolo[1,5-c]pyrimidin-7-yl)-(cis)-N-(4-hydroxycyclohexyl)-2-phenylpropanamide]"
3,1.1 nM,"C[C@](C(=O)NCc1ncccc1C(F)(F)F)(c1ccccc1)n1ncc2c1nc(N)n1nc(-c3ccco3)nc21 [Example 141B, (R)-2-(5-amino-2-(furan-2-yl)-7H-pyrazolo[4,3-e][1,2,4]triazolo[1,5-c]pyrimidin-7-yl)-2-phenyl-N-((3-(trifluoromethyl)pyridin-2-yl)methyl)propanamide]"
4,2.9 nM,"CC(C(=O)N[C@@H]1CCC[C@@H]1O)(c1ccccc1)n1ncc2c1nc(N)n1nc(-c3ccco3)nc21 (stereo partly drawn) [Example 48, 2-(5-amino-2-(furan-2-yl)-7H-pyrazolo[4,3-e][1,2,4]triazolo[1,5-c]pyrimidin-7-yl)-N-((1R,2S)-2-hydroxycyclopentyl)-2-phenylpropanamide]"
5,9.5 nM,"CC(C(=O)Nc1ccccc1)(c1ccccc1)n1ncc2c1nc(N)n1nc(-c3ccco3)nc21 (stereo not drawn) [Example 34, 2-(5-amino-2-(furan-2-yl)-7H-pyrazolo[4,3-e][1,2,4]triazolo[1,5-c]pyrimidin-7-yl)-N,2-diphenylpropanamide]"
6,2 nM,"CC(=O)O[C@H]1CC[C@@H](NC(=O)[C@@](C)(c2ccccc2)n2ncc3c2nc(N)n2nc(-c4ccco4)nc32)CC1 [Example 151B, (cis)-4-((R)-2-(5-amino-2-(furan-2-yl)-7H-pyrazolo[4,3-e][1,2,4]triazolo[1,5-c]pyrimidin-7-yl)-2-phenylpropanamido)cyclohexyl acetate]"
7,7.6 nM,"COCCNC(=O)C(C)(c1ccccc1)n1ncc2c1nc(N)n1nc(-c3ccco3)nc21 (stereo not drawn) [Example 39, 2-(5-amino-2-(furan-2-yl)-7H-pyrazolo[4,3-e][1,2,4]triazolo[1,5-c]pyrimidin-7-yl)-N-(2-methoxyethyl)-2-phenylpropanamide]"
8,7.8 nM,"CC(C(=O)NCC1(O)CCCCC1)(c1ccccc1)n1ncc2c1nc(N)n1nc(-c3ccco3)nc21 (stereo not drawn) [Example 72, 2-(5-amino-2-(furan-2-yl)-7H-pyrazolo[4,3-e][1,2,4]triazolo[1,5-c]pyrimidin-7-yl)-N-((1-hydroxycyclohexyl)methyl)-2-phenylpropanamide]"
9,22.6 nM,"C[C@@H](O)CNC(=O)C(C)(c1ccccc1)n1ncc2c1nc(N)n1nc(-c3ccco3)nc21 (stereo partly drawn) [Example 38, 2-(5-amino-2-(furan-2-yl)-7H-pyrazolo[4,3-e][1,2,4]triazolo[1,5-c]pyrimidin-7-yl)-N—((R)-2-hydroxypropyl)-2-phenylpropanamide]"
10,18.9 nM,"CN1CCN(CCNC(=O)[C@@](C)(c2ccccc2)n2ncc3c2nc(N)n2nc(-c4ccco4)nc32)CC1 [Example 147B, (R)-2-(5-amino-2-(furan-2-yl)-7H-pyrazolo[4,3-e][1,2,4]triazolo[1,5-c]pyrimidin-7-yl)-N-(2-(4-methylpiperazin-1-yl)ethyl)-2-phenylpropanamide]"
11,767 nM,"CC(C(=O)NCC1(O)COC1)(c1cccnc1)n1ncc2c1nc(N)n1nc(-c3ccco3)nc21 (stereo not drawn) [Example 89, 2-(5-amino-2-(furan-2-yl)-7H-pyrazolo[4,3-e][1,2,4]triazolo[1,5-c]pyrimidin-7-yl)-N-((3-hydroxyoxetan-3-yl)methyl)-2-(pyridin-3-yl)propanamide]"
12,3.9 nM,"CC(C(=O)NCc1ccc2c(c1)OCO2)(c1ccccc1)n1ncc2c1nc(N)n1nc(-c3ccco3)nc21 (stereo not drawn) [Example 42, 2-(5-amino-2-(furan-2-yl)-7H-pyrazolo[4,3-e][1,2,4]triazolo[1,5-c]pyrimidin-7-yl)-N-(benzo[d][1,3]dioxol-5-ylmethyl)-2-phenylpropanamide]"
13,3.3 nM,"COc1cccnc1CNC(=O)[C@@](C)(c1ccccc1)n1ncc2c1nc(N)n1nc(-c3ccco3)nc21 [Example 115B, (R)-2-(5-amino-2-(furan-2-yl)-7H-pyrazolo[4,3-e][1,2,4]triazolo[1,5-c]pyrimidin-7-yl)-N-((3-methoxypyridin-2-yl)methyl)-2-phenylpropanamide]"
14,500 nM,"CC(C(=O)NC1(CO)CC1)(c1ccccc1)n1ncc2c1nc(N)n1nc(-c3ccco3)nc21 (stereo not drawn) [Example 37, 2-(5-amino-2-(furan-2-yl)-7H-pyrazolo[4,3-e][1,2,4]triazolo[1,5-c]pyrimidin-7-yl)-N-(1-(hydroxymethyl)cyclopropyl)-2-phenylpropanamide]"
15,1.8 nM,"CC(C(=O)N[C@@H]1CCCC[C@@H]1O)(c1ccccc1)n1ncc2c1nc(N)n1nc(-c3ccco3)nc21 (stereo partly drawn) [Example 58, 2-(5-amino-2-(furan-2-yl)-7H-pyrazolo[4,3-e][1,2,4]triazolo[1,5-c]pyrimidin-7-yl)-N-((1R,2S)-2-hydroxycyclohexyl)-2-phenylpropanamide]"
16,3 nM,"Nc1nc2c(cnn2C(C(=O)NCCc2ccccc2)c2ccccc2)c2nc(-c3ccco3)nn12 (stereo not drawn) [Example 17, 2-(5-amino-2-(furan-2-yl)-7H-pyrazolo[4,3-e][1,2,4]triazolo[1,5-c]pyrimidin-7-yl)-N-phenethyl-2-phenylacetamide]"
17,12.5 nM,"CC(C(=O)NC[C@@H]1CCOC1)(c1ccccc1)n1ncc2c1nc(N)n1nc(-c3ccco3)nc21 (stereo partly drawn) [Example 53, 2-(5-amino-2-(furan-2-yl)-7H-pyrazolo[4,3-e][1,2,4]triazolo[1,5-c]pyrimidin-7-yl)-2-phenyl-N—(((S)-tetrahydrofuran-3-yl)methyl)propanamide]"
18,10.2 nM,"Nc1nc2c(cnn2C(C(=O)NC2CCCC2)c2ccccc2)c2nc(-c3ccco3)nn12 (stereo not drawn) [Example 12, 2-(5-amino-2-(furan-2-yl)-7H-pyrazolo[4,3-e][1,2,4]triazolo[1,5-c]pyrimidin-7-yl)-N-cyclopentyl-2-phenylacetamide]"
19,5.8 nM,"C[C@](C(=O)NCc1cc(C(F)(F)F)ccn1)(c1ccccc1)n1ncc2c1nc(N)n1nc(-c3ccco3)nc21 [Example 143B, (R)-2-(5-amino-2-(furan-2-yl)-7H-pyrazolo[4,3-e][1,2,4]triazolo[1,5-c]pyrimidin-7-yl)-2-phenyl-N-((4-(trifluoromethyl)pyridin-2-yl)methyl)propanamide]"

# Test system: not listed separately
# Assay: Mouse BBB assay
# Format: in vivo
# Conditions: oral 10 mg/kg, BLOQ: below limit of quantitation, Brain is 5 ng/g, read-out: Brain
# Description: Mice were acclimated for 1 week prior to use at 18-30 g body weight. Fasted mice were dosed orally at 10 mg/kg dose. At 1, 2 and 4 hours postdose, plasma samples from cardiac blood collected in tubes containing K2EDTA as the anticoagulant, and excised cerebral hemispheres were immediately frozen and stored at −80° C. until bioanalysis. Total concentrations of the compound were determined by LC-MS/MS. Brain homogenate concentrations were converted to brain concentrations for the calculations of brain-to-plasma ratios.
row,concentration at 1 h,Compound
1,258 ng/g,"COCCOc1ccc(N2CCN(CCn3ncc4c3nc(N)n3nc(-c5ccco5)nc43)CC2)cc1 [Preladenant, reference compound]"

# Same assay, conditions: oral 10 mg/kg, limit of quantitation plasma 1 ng/ml, read-out: Plasma
row,concentration at 1 h,Compound
1,197 ng/mL,"COCCOc1ccc(N2CCN(CCn3ncc4c3nc(N)n3nc(-c5ccco5)nc43)CC2)cc1 [Preladenant, reference compound]"
